Measurements as given in patent US20030005484A1, “Microbiocidal and pesticidal aromatic aldehydes” (ProGuard, Inc., priority 1994, published 2003).

How the values were obtained:
[1] = test system: leafhoppers (western grape leafhopper and Virginia creeper leafhopper nymphs); assay: leafhoppers on grapevines, 1% and 2% spray; format: in vivo; conditions: for mean number of leafhoppers per leaf: one day after treatment, across cultivars, control 26.53
Experimental: Treatment of leafhoppers (western grape leafhopper (WGL) and Virginia creeper leafhopper nymphs(VCLH)) on grapevines with cinnamic aldehyde was conducted to evaluate the protective effect of cinnamic aldehyde in different concentrations against leafhoppers on plants. A single application of 1% or 2% cinnamic aldehyde in 0.1% Tween-20 was sprayed onto the leaves of grapevines of different grape varietals (Cabernet Sauvignon, Chardonnay, Emerald Reisling and Pinot Noir) with a backpack CO2 powered sprayer at the field equivalent rate of approximately 150 gal./acre (0.5 gal. per treatment plot). Coverage on the bottom of grape leaves, where most leafhopper nymphs feed, ranged from 70%-80%. The number of leafhoppers on the leaves was counted prior to spraying and 1 day after spraying. Leafhopper numbers on grape vines were assessed by sampling 2 leaves from each of 3 grape vines per treatment (with a single vine buffer between each treatment), for which 2-3 replicates per treatment were examined. Control plants were untreated. Both concentrations of cinnamic aldehyde reduced the mean number of leafhoppers per leaf as compared to the control. The mean number of leafhoppers was defined as the sum of WGL plus VCLH per leaf.

[2] = test system: melon aphid (Aphis gossypii Glover); assay: melon aphid plant foliar bioassay on chrysanthemum; format: in vivo; conditions: for Mean Number of Aphid Nymphs Per Leaf: sprayed to runoff, after 36 hours, pre-count 60
Experimental: Treatment of melon aphid (Aphis gossypii Glover) was conducted as follows. Chrysantemums (C. morifolum) were used for melon aphid plant foliar bioassays. Plants were grown in […] pots in planting soil in greenhouse. Flowering plants were infested and pre-count population size for each plant were taken and number of mean of aphids nymphs per leaf calculated. The plants were sprayed to runoff (about 5 ml) with an aqueous formulation containing 1,000 ppm, 3,000 ppm, and 10,000 ppm concentration of cinnamic aldehyde, and a negative control containing only H2O. After 36 hours, the number of insects on the leaves sprayed with a given test formulation was determined and compared with that of insects on leaves sprayed with negative control only. Mean number of aphid nymphs per leaf were determined to be less than 10 for each cinnamic aldehyde concentration as compared to a pre-count mean of about 60.

[3] = test system: powdery mildew; assay: powdery mildew on roses, disease rating / MPDC after foliar spray; format: in vivo, Sphaerotheca pannosa; conditions: for Mean % Disease Control, rose powdery mildew: single 100 ml foliar spray; for Mean Percentage of Disease Control (MPDC), powdery mildew: five week trial
Experimental: Each formulation is evaluated for its effect on specific pests and/or plant host using any of the compounds of formula (1) as well as other components of the formulation such as Tween 80 and/or sodium bicarbonate, with the combination and effective amount of each component adapted for a particular application to minimize toxicity while maintaining or increasing the antipathogenic effect of the formulation. The effective amount of each component may be determined by systematically varying the amount of that component in a test formulation, treating a plant of interest with the test formulation, and monitoring the level of pest infestation compared to an untreated control plant. An effective amount of a test component is identified as the amount that controls the growth of the pathogen on the plant host, thus reducing the disease rating of the plant. The mean percentage disease […] (MPDC) can be calculated for each particular application. MPDC is defined by the formula: [formula] Eight cultivars of rose were tested to investigate the effect of a cinnamic aldehyde/NaHCO3 formulation on rust and spores. The cultivars used included Moss unnamed (Moss), […], Rosette Delize (Hybrid Tea), Rosa Rugosa Rubra (Rugosa), Abel Morrison (Hybrid perpetual), John Laing, Betty Prior, and Rose de Roi. […] The Hybrid Tea and Hybrid perpetual were rated 3 and the Rugosa was rated 1. […] Control plants received no treatment. […] Moreover, the treatment appeared to have induced systemic resistance. […] Plants were an average of 0.86 m apart. […] Controls were untreated plants. […] Weekly reviews were made of the various plants. […] of infected rose in dedicated experimental rose gardens were used. Four Mrs. John Laing (Hybrid perpetual) and two Marchionese of Londonderry (Hybrid perpetual) rose plants were treated with one of two formulations of coniferyl aldehyde. […] The first two Mrs. […] Mrs. […] Both Marchionese of Londonderry plants (P5 and P6) were rated 5 for powdery mildew and rust after Paulus and Nelson (supra). Two treatment formulae were used for this trial. […] Control plants were sprayed with water alone. The change in the rating from pre-treatment to post-treatment was calculated as the mean percentage of disease control (MPDC) as described herein. A three treatment experiment with cinnamic aldehyde formula, coniferyl aldehyde formula and combined cinnamic and coniferyl aldehyde formula was carried out on field grown roses known to be susceptible to powdery mildew. The plants were blocked by variety before fungicide treatments and were randomized as to the plants. Two varieties were used in each of the three experiments described below. […] In experiment 3 Comte de Chambord (Portland) and Madame Pierre Oger (Bourbon) were used. In Experiment 1, the effect of cinnamic aldehyde alone and in combination with Tween 80 and/or NaHCO3 component was evaluated in experiment 2 the effect of coniferyl aldehyde alone and in combination with Tween 80 and/or NaHCO3 was evaluated and in experiment 3 a combination of cinnamic aldehyde and coniferyl aldehyde with Tween 80 and/or NaHCo3 was evaluated. […] See Table 3 for the treatment protocol; formula 1 was used for these experiments. […] Plants were evaluated using the Paulus/Nelson scale just prior to and four days after treatment. […] Moreover, cinnamic aldehyde, coniferyl aldehyde, Tween 80 and NaHCO3 are used in the food industry and there is likely to be little toxicological risk to the consumer or handler from any horticultural or food crop sprayed in this way. Similarly, as these chemicals leave no toxic residue, there is little chance of any detrimental effect on the wider environment, and their use is likely to be compatible with current biological control methods such as beneficial insects and/or microorganisms.

[4] = test system: phylloxera Biotype A; assay: planter / field box vines, leaf spray, phylloxera population on roots; format: in vivo, Daktulosphaira vitifoliae; conditions: Chardonnay (2 treatments), two weeks
[5] = test system: Stubby Root nematode; assay: vineyard grape vines, nematode infestation: stubby root; format: in vivo
Experimental: The subject formulations were tested for ability to reduce grape vine infestation by root knot, ring, stubby root, and roll lesion nematodes. Grape vines (Harmony rootstock) in a vinyard were treated with 1000 ppm or 3000 ppm cinnamaldehyde in 2% Tween 80, the commercial anti-nematode agent Nemacur, or a formulation blank. The extent of nematode infestation was determined at the time of treatment and at 30 and 60 days post-treatment.

SMILES: O=C/C=C/c1ccccc1 [cinnamic aldehyde]
- mean number of leafhoppers per leaf ([1]; 1% in 0.1% Tween-20): 4.33 leafhoppers per leaf
- mean number of leafhoppers per leaf ([1]; 2% in 0.1% Tween-20): 2.13 leafhoppers per leaf
- MEAN LEAFHOPPERS/LEAF ([1]; Cabernet, 1% CNMA, control 15.33): 3.0
- MEAN LEAFHOPPERS/LEAF ([1]; Chardonnay, 2% CNMA, control 23.75): 3.83
- MEAN LEAFHOPPERS/LEAF ([1]; Emerald Reisling, 1% CNMA, control 51.12): 5.67
- MEAN LEAFHOPPERS/LEAF ([1]; Pinot Noir, 2% CNMA, control 19.44): 1.0
- Mean Number of Aphid Nymphs Per Leaf ([2]; CNMA 1,000 ppm in H2O): 6 ± 3
- Mean Number of Aphid Nymphs Per Leaf ([2]; CNMA 3,000 ppm in H2O): 4 ± 3
- Mean Number of Aphid Nymphs Per Leaf ([2]; CNMA 10,000 ppm in H2O): 1 ± 1
- Mean number of aphid nymphs per leaf ([2]; each concentration (1,000, 3,000, 10,000 ppm), pre-count mean of about 60): less than 10
- Mean % Disease Control, rose powdery mildew ([3]; aldehyde 5 g (mixture 2.5 g + 2.5 g) with NaHCO3 (80 g), four days): 56%
- Mean % Disease Control, rose powdery mildew ([3]; aldehyde 5 g (mixture 2.5 g + 2.5 g) with T80 (10 g), four days): 44%
- Mean % Disease Control, rose powdery mildew ([3]; aldehyde 5 g (mixture 2.5 g + 2.5 g) with T80 + NaHCO3 (formulas G, M, Q), four days): 94%
- Mean % Disease Control, rose powdery mildew ([3]; aldehyde 5 g (mixture 2.5 g + 2.5 g), no additive, rated four days after treatment): 50%
- Mean Percentage of Disease Control (MPDC), powdery mildew ([3]; field rose Betty Prior, same single spray): 64.3%
- Mean Percentage of Disease Control (MPDC), powdery mildew ([3]; field rose John Laing, single spray 5 g cinnamic aldehyde, 10 g Tween 80, 80 g NaHCO3 per 1000 g): 98.3%
- Mean Percentage of Disease Control (MPDC), powdery mildew ([3]; field rose Rose de Roi, same single spray): 100%
- MPDC, powdery mildew, average for all three roses ([3]; field roses John Laing, Betty Prior, Rose de Roi, same single spray): 90.7%
- time plants remained free of powdery mildew and rust ([3]; potted or field roses sprayed to runoff with emulsion of cinnamic aldehyde and sodium bicarbonate, concomitantly saponin): up to 56 days
- powdery mildew after a single treatment ([3]; potted roses, ~100 ml foliar spray of 5 g cinnamic aldehyde, 80 g NaHCO3, 10 g Tween 80 per 1000 g, weekly saponin, observed 8 weeks): eradicative
- Number of phylloxera per root piece ([4]; 1 K CNMA): 637
- Number of phylloxera per root piece ([4]; 10 K CNMA): 102
- Stubby Root, nematodes per 250 cc soil ([5]; 1000 ppm in 2% Tween 80, 30 days post-treatment): 45 per 250 cc soil
- Stubby Root, nematodes per 250 cc soil ([5]; 1000 ppm in 2% Tween 80, 60 days post-treatment): 36.2 per 250 cc soil
- Stubby Root, nematodes per 250 cc soil ([5]; 1000 ppm in 2% Tween 80, day 0 (time of treatment)): 13.8 per 250 cc soil
- Stubby Root, nematodes per 250 cc soil ([5]; 3000 ppm in 2% Tween 80, 30 days post-treatment): 8.8 per 250 cc soil
- Stubby Root, nematodes per 250 cc soil ([5]; 3000 ppm in 2% Tween 80, 60 days post-treatment): 43.5 per 250 cc soil
- Stubby Root, nematodes per 250 cc soil ([5]; 3000 ppm in 2% Tween 80, day 0 (time of treatment)): 0.8 per 250 cc soil
